{
  "source": "patent US20120328526A1",
  "about": "“Modulation of Nad+ Activity in Neuropathophysiological Conditions and Uses Thereof” (University of Maryland, Baltimore, priority 2011, published 2012)",
  "system": "C57Bl/6 mice subjected to moderate-level traumatic brain injury",
  "assay": "Beam walk test after controlled cortical impact traumatic brain injury",
  "type": "in vivo, mouse",
  "conditions": "NMN 500 mg/kg I.P. at 1 hour post-injury, 7 days post-injury, p<0.001",
  "protocol": "FIGS. 9A-9B show traumatic brain injury-induced deficits in sensorimotor function and cognition are ameliorated by nicotinamide mononucleotide treatment. FIG. 9A: Fine motor coordination deficits were quantified using a beam walk test in C57Bl/6 mice subjected to moderate-level traumatic brain injury and treated with nicotinamide mononucleotide (500 mg/kg, I.P.) or equal volume of vehicle at 1 hour post-injury. Hindlimb foot placement was recorded up to 7 days post-injury and the number of foot faults recorded from 50 steps. Naïve C57Bl/6 mice served as a control group. […] Analysis was by repeated measures one-way ANOVA, followed by post-hoc adjustments using Student-Newman-Keuls test. Mean ±S.E.M.; n=5/group. FIG. 9B: Cognitive performance was analyzed by measuring the number of anti-clockwise and clockwise rotations of traumatic brain injury mice in an open field test performed at 7 days post-injury.\nIn a clinically relevant model of traumatic brain injury, controlled cortical impact (CCI) (Fox et al. 1998), was induced in C57Bl/6 mice and these animals were followed for up to 1 year post-injury to assess post-traumatic tissue loss and neurodegeneration. […] One group was evaluated for changes between 24 h and 3 months post-injury; a second group was used to compare changes in TBI-induced lesion volume between 6 and 12 months. […]",
  "data": [
    {"smiles": "NC(=O)c1ccc[n+]([C@@H]2O[C@H](COP(=O)([O-])O)[C@@H](O)[C@H]2O)c1", "note": "[nicotinamide mononucleotide]", "values": [
      {"measurement": "fine motor coordination (beam walk foot faults) vs vehicle-treated TBI mice", "result": "significant improvement in motor performance"},
      {"measurement": "fine motor coordination (beam walk foot faults) vs vehicle-treated TBI mice", "setting": "listed as NMN", "result": "significantly reduced deficits in fine motor coordination"}
    ]}
  ]
}
